Measurements published in patent US11590116B2 (THERAVANCE BIOPHARMA R&D IP, LLC, priority 2019, dated 2023).

Assays:
[1] = target: T1, recombinant human ALK5 (TGF-βR1) protein (Homo sapiens, UniProt P36897); assay: Biochemical ALK5 (TGF-βR1) assay to measure pKi (LANCE Ultra ULight kinase assay); conditions: apparent pKi from pIC50 by Cheng-Prusoff, read-out: ALK5 pKi (converted)
T1 construct: purchased Life Technologies PR9075A
T1 sequence (P36897 34-503): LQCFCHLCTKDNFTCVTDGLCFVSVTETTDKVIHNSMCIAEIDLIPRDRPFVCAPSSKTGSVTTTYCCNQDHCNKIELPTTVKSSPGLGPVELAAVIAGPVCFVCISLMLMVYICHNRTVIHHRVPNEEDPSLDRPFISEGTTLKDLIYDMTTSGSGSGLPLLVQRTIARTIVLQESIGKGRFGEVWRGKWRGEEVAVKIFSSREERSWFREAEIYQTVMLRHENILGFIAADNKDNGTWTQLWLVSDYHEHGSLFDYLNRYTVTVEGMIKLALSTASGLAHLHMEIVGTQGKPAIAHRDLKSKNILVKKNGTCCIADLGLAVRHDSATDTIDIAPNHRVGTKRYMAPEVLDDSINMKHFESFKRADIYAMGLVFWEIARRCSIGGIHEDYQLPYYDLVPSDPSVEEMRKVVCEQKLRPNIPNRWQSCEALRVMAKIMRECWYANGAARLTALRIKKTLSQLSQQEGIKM
How it was run: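 Dose range 10 μM–25 pM; enzyme + compound 60 min RT; ATP added (5× stock 125 μM, 2 mM DTT); 60 min 37 °C; stop with EDTA + Eu anti-phospho-Topo IIα Thr1342 Ab; TR-FRET ex 320/340, em 665 nm. 4-param pIC50 → pKi (Cheng-Prusoff).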

[2] = test system: TGF-β-stimulated SMAD3 phosphorylation in BEAS-2B cells; assay: Cellular ALK5 potency assay, inhibition of TGF-β stimulated pSMAD3 formation in BEAS-2B cells; format: cell-based; conditions: Homo sapiens; inhibition of TGF-β stimulated pSMAD3 formation, BEAS-2B cells; read-out: BEAS2B pIC50 (converted)
How it was run: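 Cells seeded overnight; rinse with supplemented HBSS; compound 1 h at 37 °C; TGF-β 10 ng/mL final, 30 min; lyse; AlphaLISA acceptor and detector beads 2 h apart, read next day. Potency expressed as pIC50.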

Row | Ki [1] [nM] | Compound | IC50 [2] [nM]
1 | < 0.0316 | CCc1cccc(-c2n[nH]cc2-c2ccc3ncc(N4CCC(NC)CC4)cc3n2)n1 [Compound 377, 1-[6-[3-(6-ethyl-2-pyridyl)-1H-pyrazol-4-yl]-1,5-naphthyridin-3-yl]-N-methyl-piperidin-4-amine] | 25.1 to 158
2 | < 0.0316 | CNCCn1cc(-c2cnc3ccc(-c4c(-c5cccc(C)n5)nnn4C)cc3c2)cn1 [Compound 628, N-methyl-2-(4-(6-(1-methyl-4-(6-methylpyridin-2-yl)-1H-1,2,3-triazol-5-yl)quinolin-3-yl)-1H-pyrazol-1-yl)ethan-1-amine] | 25.1 to 158
3 | 0.0398 to 0.316 | Cc1cccc(-c2[nH]cnc2-c2ccc3ncc(-c4ncc(C(=O)OC5CNC5)s4)cc3c2)n1 [Compound 1018, azetidin-3-yl 2-(6-(5-(6-methylpyridin-2-yl)-1H-imidazol-4-yl)quinolin-3-yl)thiazole-5-carboxylate] | 25.1 to 158
4 | 0.0398 to 0.316 | Cc1cccc(-c2n[nH]cc2-c2ccc3ncc(-c4cccc(F)c4)cc3n2)n1 [Compound 58, 7-(3-fluorophenyl)-2-[3-(6-methyl-2-pyridyl)-1H-pyrazol-4-yl]-1,5-naphthyridine] | 25.1 to 158
5 | < 0.0316 | Cc1cccc(-c2n[nH]cc2-c2ccc3ncc(-c4ccc5c(n4)CCNC5)cc3n2)n1 [Compound 678, 2-[3-(6-methyl-2-pyridyl)-1H-pyrazol-4-yl]-7-(5,6,7,8-tetrahydro-1,6-naphthyridin-2-yl)-1,5-naphthyridine] | 25.1 to 158
6 | < 0.0316 | Cc1nc(-c2n[nH]cc2-c2ccc3ncc(-c4cnn(CC5CNC5)c4)cc3n2)ccc1F [Compound 474, 7-[1-(azetidin-3-ylmethyl)pyrazol-4-yl]-2-[3-(5-fluoro-6-methyl-2-pyridyl)-1H-pyrazol-4-yl]-1,5-naphthyridine] | 25.1 to 158
7 | 0.0398 to 0.316 | Cc1cccc(-c2[nH]cnc2-c2ccc3ncc(C(=O)O[C@@H]4CC[C@@H](N)C4)cc3c2)n1 (racemic) [Compound 766, [rac-(1R,3R)-3-aminocyclopentyl] 6-[5-(6-methyl-2-pyridyl)-1H-imidazol-4-yl]quinoline-3-carboxylate] | 25.1 to 158
8 | 0.0398 to 0.316 | Cc1cccc(-c2[nH]ncc2-c2ccc3ncc(C(=O)O[C@H]4CC[C@](C)(N)CC4)cc3c2)n1 [Compound 1196, (4-amino-4-methyl-cyclohexyl) 6-[5-(6-methyl-2-pyridyl)-1H-pyrazol-4-yl]quinoline-3-carboxylate] | < 20
9 | < 0.0316 | Cc1cccc(-c2n[nH]cc2-c2ccc3nccc(-c4cn[nH]c4)c3c2)n1 [Compound 866, 6-[3-(6-methyl-2-pyridyl)-1H-pyrazol-4-yl]-4-(1H-pyrazol-4-yl)quinoline] | 25.1 to 158
10 | < 0.0316 | Cc1cccc(-c2n[nH]cc2-c2ccc3ncc(C4=CCC(NCc5ccccc5)CC4)cc3n2)n1 (centres unmarked) [Compound 502, N-benzyl-4-[6-[3-(6-methyl-2-pyridyl)-1H-pyrazol-4-yl]-1,5-naphthyridin-3-yl]cyclohex-3-en-1-amine] | 25.1 to 158
11 | < 0.0316 | Cc1nc(-c2n[nH]cc2-c2ccc3ncc(-c4cnn(C[C@H]5CCC[C@@H](N)C5)c4)cc3n2)ccc1F (racemic) [Compound 463, rac-(1R,3S)-3-[[4-[6-[3-(5-fluoro-6-methyl-2-pyridyl)-1H-pyrazol-4-yl]-1,5-naphthyridin-3-yl]pyrazol-1-yl]methyl]cyclohexanamine] | 25.1 to 158
12 | 0.0398 to 0.316 | Cc1nc(-c2n[nH]cc2-c2ccc3ncc(-c4cnc5n4CCNC5)cc3n2)ccc1F [Compound 245, 2-[3-(5-fluoro-6-methyl-2-pyridyl)-1H-pyrazol-4-yl]-7-(5,6,7,8-tetrahydroimidazo[1,2-a]pyrazin-3-yl)-1,5-naphthyridine] | 25.1 to 158
13 | 0.0398 to 0.316 | Cc1cccc(-c2[nH]cnc2-c2ccc3ncc(-c4ccc5c(c4)CCC5N)cc3c2)n1 (centres unmarked) [Compound 275, 5-[6-[5-(6-methyl-2-pyridyl)-1H-imidazol-4-yl]-3-quinolyl]indan-1-amine] | 25.1 to 158
14 | 0.398 to 3.16 | Cc1cccc(-c2n[nH]cc2-c2ccc3ncc(CNCCCN4CCN(C(C)C)CC4)cc3n2)n1 [Compound 218, 3-(4-isopropylpiperazin-1-yl)-N-[[6-[3-(6-methyl-2-pyridyl)-1H-pyrazol-4-yl]-1,5-naphthyridin-3-yl]methyl]propan-1-amine] | 200 to 1260
15 | 0.0398 to 0.316 | Cc1cccc(-c2n[nH]cc2-c2ccc3ncc(NCCN4CCN(C(C)C)CC4)cc3c2)n1 [Compound 428, N-[2-(4-isopropylpiperazin-1-yl)ethyl]-6-[3-(6-methyl-2-pyridyl)-1H-pyrazol-4-yl]quinolin-3-amine] | 25.1 to 158
16 | 0.398 to 3.16 | Cc1cccc(-c2n[nH]cc2-c2ccc3ncc(N4C[C@@H](C)NC[C@H]4C)cc3n2)n1 (racemic) [Compound 462, 2-[3-(6-methyl-2-pyridyl)-1H-pyrazol-4-yl]-7-[rac-(2R,5R)-2,5-dimethylpiperazin-1-yl]-1,5-naphthyridine] | 25.1 to 158
17 | 0.0398 to 0.316 | Cc1cccc(-c2n[nH]cc2-c2ccc3ncc(N4C[C@@H](C)N(C)C[C@H]4C)cc3n2)n1 (racemic) [Compound 296, 2-[3-(6-methyl-2-pyridyl)-1H-pyrazol-4-yl]-7-[rac-(2R,5R)-2,4,5-trimethylpiperazin-1-yl]-1,5-naphthyridine] | 25.1 to 158
18 | 0.0398 to 0.316 | Cc1cccc(-c2[nH]cnc2-c2ccc3ncc(NCCC4CNC4)cc3c2)n1 [Compound 116, N-[2-(azetidin-3-yl)ethyl]-6-[5-(6-methyl-2-pyridyl)-1H-imidazol-4-yl]quinolin-3-amine] | 25.1 to 158
19 | 0.398 to 3.16 | Cc1cccc(-c2[nH]cnc2-c2ccc3nccc(C(=O)O[C@H]4CC[C@](C)(N)CC4)c3c2)n1 [Compound 1209, (4-amino-4-methyl-cyclohexyl) 6-[5-(6-methyl-2-pyridyl)-1H-imidazol-4-yl]quinoline-4-carboxylate] | 25.1 to 158
20 | 0.0398 to 0.316 | Cc1cccc(-c2[nH]cnc2-c2ccc3ncc(NC4CCC5(CC4)CNC5)cc3c2)n1 [Compound 14, N-(2-azaspiro[3.5]nonan-7-yl)-6-[5-(6-methyl-2-pyridyl)-1H-imidazol-4-yl]quinolin-3-amine] | 200 to 1260
21 | 0.0398 to 0.316 | Cc1cccc(-c2[nH]ncc2-c2ccc3ncc(C(=O)OC4CCNCC4)cc3n2)n1 [Compound 485, 4-piperidyl 6-[5-(6-methyl-2-pyridyl)-1H-pyrazol-4-yl]-1,5-naphthyridine-3-carboxylate] | 25.1 to 158
22 | 0.0398 to 0.316 | Cc1cccc(-c2[nH]cnc2-c2ccc3ncc(N4CC[C@@H](N)C4)cc3c2)n1 [Compound 13, (3R)-1-[6-[5-(6-methyl-2-pyridyl)-1H-imidazol-4-yl]-3-quinolyl]pyrrolidin-3-amine] | < 20
23 | 0.0398 to 0.316 | Cc1cccc(-c2[nH]cnc2-c2ccc3ncc(C(=O)O[C@H]4C[C@H](N)C4)cc3c2)n1 [Compound 782, (3-aminocyclobutyl) 6-[5-(6-methyl-2-pyridyl)-1H-imidazol-4-yl]quinoline-3-carboxylate] | 25.1 to 158
24 | 0.0398 to 0.316 | Cc1cccc(-c2[nH]cnc2-c2ccc3ncc(NC4CNC4)cc3c2)n1 [Compound 50, N-(azetidin-3-yl)-6-[5-(6-methyl-2-pyridyl)-1H-imidazol-4-yl]quinolin-3-amine] | 25.1 to 158
25 | < 0.0316 | Cc1cccc(-c2n[nH]cc2-c2ccc3ncc(N4CCC(N5CCCC5)CC4)cc3n2)n1 [Compound 335, 2-(3-(6-methylpyridin-2-yl)-1H-pyrazol-4-yl)-7-(4-(pyrrolidin-1-yl)piperidin-1-yl)-1,5-naphthyridine] | 25.1 to 158
26 | < 0.0316 | Cc1cccc(-c2[nH]cnc2-c2ccc3ncc(Nc4ccc(N5CCN(C)CC5)cn4)cc3c2)n1 [Compound 441, N-[5-(4-methylpiperazin-1-yl)-2-pyridyl]-6-[5-(6-methyl-2-pyridyl)-1H-imidazol-4-yl]quinolin-3-amine] | 25.1 to 158
27 | 0.0398 to 0.316 | CNCCn1cc(-c2cnc3ccc(-c4nc[nH]c4-c4ccc(F)c(C)n4)nc3c2)cn1 [Compound 559, 2-[4-[6-[5-(5-fluoro-6-methyl-2-pyridyl)-1H-imidazol-4-yl]-1,5-naphthyridin-3-yl]pyrazol-1-yl]-N-methyl-ethanamine] | 25.1 to 158
28 | < 0.0316 | CCC(=O)Nc1cnc2ccc(-c3c[nH]nc3-c3cccc(C)n3)nc2c1 [Compound 234, N-[6-[3-(6-methyl-2-pyridyl)-1H-pyrazol-4-yl]-1,5-naphthyridin-3-yl]propanamide] | < 20
